Assay results taken from ChEMBL document CHEMBL2074395, “NF-kappaB-mediated induction of mdr1b expression by insulin in rat hepatoma cells” (J Biol Chem, 1997).

Molecular target: ATP-dependent translocase ABCB1 (Rattus norvegicus, UniProt P43245)
Assay: TP_TRANSPORTER: RNase protection assay in H-4-II-E cells
Format: functional, cell-based

Chain of ATP-dependent translocase ABCB1 (P43245 whole entry): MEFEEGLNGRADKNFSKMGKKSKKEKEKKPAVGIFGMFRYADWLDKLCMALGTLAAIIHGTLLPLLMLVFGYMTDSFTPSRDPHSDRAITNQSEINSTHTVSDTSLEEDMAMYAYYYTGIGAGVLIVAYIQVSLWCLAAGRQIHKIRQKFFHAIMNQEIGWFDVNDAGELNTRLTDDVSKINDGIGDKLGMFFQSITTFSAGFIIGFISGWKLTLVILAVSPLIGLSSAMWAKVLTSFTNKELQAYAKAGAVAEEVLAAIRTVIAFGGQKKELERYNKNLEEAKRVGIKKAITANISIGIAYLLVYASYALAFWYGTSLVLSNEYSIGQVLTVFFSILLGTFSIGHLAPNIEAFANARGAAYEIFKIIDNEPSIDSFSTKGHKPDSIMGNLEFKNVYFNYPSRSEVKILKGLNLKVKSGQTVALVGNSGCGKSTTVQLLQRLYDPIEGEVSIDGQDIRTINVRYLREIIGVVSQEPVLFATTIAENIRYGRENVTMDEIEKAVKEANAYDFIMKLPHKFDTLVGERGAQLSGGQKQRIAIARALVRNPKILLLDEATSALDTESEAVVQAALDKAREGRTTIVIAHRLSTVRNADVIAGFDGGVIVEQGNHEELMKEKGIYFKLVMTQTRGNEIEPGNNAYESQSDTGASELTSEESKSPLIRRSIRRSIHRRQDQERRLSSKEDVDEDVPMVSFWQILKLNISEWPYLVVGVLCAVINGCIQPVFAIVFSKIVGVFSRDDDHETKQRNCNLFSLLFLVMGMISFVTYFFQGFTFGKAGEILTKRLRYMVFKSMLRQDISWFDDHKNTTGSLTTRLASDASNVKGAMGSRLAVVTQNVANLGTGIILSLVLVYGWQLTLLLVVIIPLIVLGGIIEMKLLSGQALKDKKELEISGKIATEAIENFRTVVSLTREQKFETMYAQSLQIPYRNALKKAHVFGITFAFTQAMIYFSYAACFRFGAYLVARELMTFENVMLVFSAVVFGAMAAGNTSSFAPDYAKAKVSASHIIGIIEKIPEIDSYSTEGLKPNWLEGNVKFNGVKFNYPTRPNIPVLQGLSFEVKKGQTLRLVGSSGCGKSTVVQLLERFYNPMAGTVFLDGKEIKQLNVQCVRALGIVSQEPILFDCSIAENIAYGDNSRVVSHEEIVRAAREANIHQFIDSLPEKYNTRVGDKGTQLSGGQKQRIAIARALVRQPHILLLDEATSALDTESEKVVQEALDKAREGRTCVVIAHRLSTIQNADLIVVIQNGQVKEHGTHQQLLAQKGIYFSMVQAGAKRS

Activity: inducer [+]
Substance: INSULIN HUMAN
